Article PMC7894426, “Influence of verapamil on the pharmacokinetics of rotundic acid in rats and its potential mechanism” (Pharmaceutical Biology, 2021)
Where two headings read alike, the source gives them in different places.

What was measured:
[1] = biological target: T1, CYP2C9 (Homo sapiens, UniProt P11712); assay: Metabolic depletion of RA by rhCYP2C9; assay type: in vitro ADME; conditions: rhCYP2C9 25 pM, RA 2 µM, 30 min
T1 construct: purchased Research Institute for Liver Disease (Shanghai) Co., Ltd
Procedure: (§1) The metabolic stability of RA was evaluated against five rhCYPs (1A2, 2C8, 2C9, 2D6 and 3A4). Incubation was taken place in 0.1 M sodium phosphate buffer (pH 7.4) containing 5 mM MgCl2, 1 mM NADPH, and 25 pM rhCYP enzyme protein at 37 °C in a total volume of 1 mL. After pre-incubated for 5 min, the reactions were started by the addition of RA methanol solution (final concentration of 2 µM). Aliquots of 50 µL incubation solution were collected from the reaction at 0, 5, 10, 20 and 30 min, and quenched with 50 µL ice-cold methanol (containing 0.5% formic acid) and 100 µL ice-cold acetonitrile containing IS (10 ng/mL). The heat-inactivated rhCYP3A4 were used as negative controls. All reactions were conducted in triplicate, followed by LC-MS/MS analysis. Results presented in percentage of drug remaining in incubation starting at 100% at time zero.

[2] = Bidirectional transport across MDCKII-Mock cell monolayers; assay type: in vitro ADME, canine; conditions: dog, MDCK, MDCKII-Mock, 20 min; for efflux ratio at 20 min: read-out: RE (efflux ratio)
Procedure: The qualified monolayers were used for transport studies. […] Each experiment was carried out in triplicate.

[3] = tested on: MDCKII-MDR1 cells; assay: MTS cell-proliferation assay; assay type: cell-based, canine; conditions: 25 µM RA
[4] = tested on: MDCKII-Mock cells; assay: MTS cell-proliferation assay; assay type: cell-based, canine; conditions: 25 µM RA
[5] = biological target: T2, CYP2D6 (Homo sapiens, UniProt P10635); assay: Metabolic depletion of RA by rhCYP2D6; assay type: in vitro ADME; conditions: rhCYP2D6 25 pM, RA 2 µM, 30 min
T2 construct: purchased Research Institute for Liver Disease (Shanghai) Co., Ltd
Procedure: as §1

[6] = In vivo pharmacokinetic study of oral rotundic acid with or without verapamil pre-treatment; design: species or system Sprague–Dawley rats; conditions: rats, RA 10 mg/kg oral; for AUC(0-inf) / CL/F / Cmax / Vd/F / half-life / AUC(0-t) / Tmax: male, Sprague-Dawley, rat, plasma, po, 10 mg/kg; for AUC(0-t): read-out: AUC0–24
Procedure: Male Sprague–Dawley rats (180–220 g) were purchased from SiPeiFu (Beijing) Biotechnology Co., Ltd. (Beijing, China). Rats were housed in a breeding room at stable temperature (22 ± 3 °C), humidity (55 ± 10%), and under non-pathogenic conditions. All animals were placed under the above conditions and acclimatized to the facilities for one week, then fasted for 12 h with water ad libitum before the experiments. The protocols involving experimental animals were carried out by the guidelines of the Animal Ethical Committee of Tianjin Institute of Pharmaceutical Research (Tianjin, China).
To evaluate the influence of verapamil on the in vivo pharmacokinetics of RA, the male Sprague–Dawley rats were randomly divided into three groups (n = 6), including a control group and two pre-treatment groups. The pre-treatment groups received verapamil orally by gavage at a dose of 25 and 50 mg/kg (dissolved in 5% gum arabicin at a concentration of 5 and 10 mg/mL, respectively) separately for 15 min before the administration of RA at a dose of 10 mg/kg (dissolved in 5% gum arabicin at a concentration of 2 mg/mL). The dose of verapamil selected was equated to the human maximum recommended daily dose of 240–480 mg for a 60 kg person following allometric conversion (US Food and Drug Administration [2005]; Cao et al. [2007]). The control group received equal amounts of the vehicle (5% gum arabicin) before the oral administration of RA. Whole blood samples (200 µL) were collected from the orbital venous plexus at 0.0833, 0.25, 0.5, 1, 1.5, 2, 3, 4, 6, 8, 10 and 24 h after oral administration. All samples were transferred into heparinized tubes and then centrifuged for 5 min at 12,000 rpm and 4 °C immediately. The supernatants of separated plasma samples were harvested and stored at −20 °C until LC-MS/MS analysis.
RA was extracted from the sample using a simple protein precipitation method with a 3-fold volume of an organic solvent consisting of methanol-acetonitrile (1:2, v/v). Briefly, a 50 µL aliquot of plasma sample was thawed at room temperature and was then precipitated by 50 µL of methanol and 100 µL of acetonitrile containing IS (10 ng/mL). The sample was mixed uniformly for 1 min, and then centrifuged for 10 min at 12,000 rpm and 4 °C. Subsequently, 10 µL supernatants were injected into the LC-MS/MS system for analysis.
The separation and mass spectrometric analysis of the RA was achieved on a Waters ACQUITY^TM Ultra Performance LC system coupled with a Tandem Quadrupole (TQ) Detector equipped with an electrospray ionization (ESI) source. Chromatographic separation was performed at 40 °C with an ACQUITYUPLC BEH C8 column (1.7 µm, 2.1 × 50 mm, Waters Corp., USA). The mobile phase consisted of methanol-acetonitrile (50:50, v/v, mobile phase A), and 5 mM ammonium formate-methanol (90:10, v/v, mobile phase B). While the gradient elution procedure was employed for the separation of analytes at a flow rate of 0.3 mL/min. The optimized gradient elution program was as follows: 0 min 60% B, 3 min 10% B, 4 min 10% B, and 5 min 60% B. The injection volume was 10 µL at an autosampler temperature of 6 °C. The analytical run time for each sample was 5.0 min. The HPLC elution was injected into waste for the first 1.2 min, into the MS detector for the next 1 min, and back into waste for the remaining run time. RA and IS were monitored with the mass spectrometer by negative ESI source mode. The ionization source parameters were set as follows: 2.5 kV, 30 V, 120 °C, 350 °C, 50 L/h, and 650 L/h for capillary voltage, cone voltage, source temperature, desolvation temperature, cone gas, and desolvation gas, respectively. The optimal collision energy was operated at 30 V for RA and 20 V for IS. Argon was used as the collision gas. Samples were analyzed by multiple reaction monitoring (MRM) of the transitions of m/z 487.3 → 469.3 for RA and m/z 256.0 → 227.0 for IS, respectively. The dwell time was set at 0.2 s per transition. Data were acquired by MassLynx 4.1 software. […]

[7] = pH 7.4, with verapamil 50 µM, + 50 µM verapamil
[8] = pre-treatment of verapamil 25 mg/kg
[9] = pre-treatment of verapamil 50 mg/kg

T2 sequence (P10635 whole entry): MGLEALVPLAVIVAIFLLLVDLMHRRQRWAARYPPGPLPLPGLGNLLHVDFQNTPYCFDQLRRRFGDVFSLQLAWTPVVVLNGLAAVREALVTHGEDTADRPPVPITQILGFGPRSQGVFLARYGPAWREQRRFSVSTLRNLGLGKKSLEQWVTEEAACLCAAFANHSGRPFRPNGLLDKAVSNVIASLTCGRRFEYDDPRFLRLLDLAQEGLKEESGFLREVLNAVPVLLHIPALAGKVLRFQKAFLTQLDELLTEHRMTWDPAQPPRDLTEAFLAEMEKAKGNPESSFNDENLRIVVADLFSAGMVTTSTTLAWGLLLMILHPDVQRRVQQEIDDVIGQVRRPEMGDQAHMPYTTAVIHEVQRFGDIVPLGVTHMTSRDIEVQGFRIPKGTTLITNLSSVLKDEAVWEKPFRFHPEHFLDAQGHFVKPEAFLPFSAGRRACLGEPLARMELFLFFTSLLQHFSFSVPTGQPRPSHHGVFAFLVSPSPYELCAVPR
T1 sequence (P11712 whole entry): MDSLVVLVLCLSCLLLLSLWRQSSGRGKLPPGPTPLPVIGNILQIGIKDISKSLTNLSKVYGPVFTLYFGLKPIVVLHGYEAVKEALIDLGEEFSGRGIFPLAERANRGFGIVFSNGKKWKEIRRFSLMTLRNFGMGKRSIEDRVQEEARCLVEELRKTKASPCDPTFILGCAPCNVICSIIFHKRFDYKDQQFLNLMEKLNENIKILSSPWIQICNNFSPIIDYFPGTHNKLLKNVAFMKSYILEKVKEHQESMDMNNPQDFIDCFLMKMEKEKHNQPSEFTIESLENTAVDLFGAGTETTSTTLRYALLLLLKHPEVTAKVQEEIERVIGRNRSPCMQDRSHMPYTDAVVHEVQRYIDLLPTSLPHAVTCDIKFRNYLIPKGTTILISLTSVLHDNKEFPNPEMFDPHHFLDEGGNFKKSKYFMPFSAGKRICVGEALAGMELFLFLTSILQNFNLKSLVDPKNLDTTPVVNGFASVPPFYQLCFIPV

C[C@@H]1CC[C@]2(C(=O)O)CC[C@]3(C)C(=CC[C@@H]4[C@@]5(C)CC[C@H](O)[C@@](C)(CO)[C@@H]5CC[C@]43C)[C@@H]2[C@]1(C)O [RA, Rotundic acid]
RA converted [1]: 41.4%
Papp A→B at 20 min [2, 7]: 6.52 ± 0.864 ×10⁻⁶ cm/s
Papp B→A at 20 min [2, 7]: 6.23 ± 0.895 ×10⁻⁶ cm/s
efflux ratio at 20 min [2, 7]: 0.955
Papp A→B at 20 min ([2]; pH 7.4, without verapamil): 6.07 ± 0.886 ×10⁻⁶ cm/s
Papp B→A at 20 min ([2]; pH 7.4, without verapamil): 6.72 ± 2.03 ×10⁻⁶ cm/s
efflux ratio at 20 min ([2]; pH 7.4, without verapamil): 1.11
effect on cell proliferation (MTS) [3]: did not influence the cell proliferation
effect on cell proliferation (MTS) [4]: did not influence the cell proliferation
RA converted [5]: < 30%
AUC(0-inf) ([6]; control (vehicle)): 432 ± 64.2 ng·h/mL
CL/F ([6]; control (vehicle)): 393 mL/min/kg
Cmax ([6]; control (vehicle)): 108 ± 10.5 ng/mL
Vd/F ([6]; control (vehicle)): 64.6 ± 22.6 L/kg
half-life ([6]; control (vehicle)): ~120 min
AUC(0-t) ([6]; control (vehicle)): 405 ± 68.2 ng·h/mL
Tmax ([6]; control (vehicle), read-out: Tmax): 17.5 ± 13.7 min
AUC(0-inf) [6, 8]: 539 ± 53.6 ng·h/mL
CL/F [6, 8]: 312 mL/min/kg
Cmax [6, 8]: 117 ± 14.9 ng/mL
Vd/F [6, 8]: 66.7 ± 21.1 L/kg
half-life [6, 8]: 146 ± 34.3 min
AUC(0-t) [6, 8]: 496 ± 63 ng·h/mL
Tmax ([6]; pre-treatment of verapamil 25 mg/kg, read-out: Tmax): 37.5 ± 18.4 min
AUC(0-inf) [6, 9]: 836 ± 116 ng·h/mL
CL/F [6, 9]: 203 mL/min/kg
Cmax [6, 9]: 219 ± 36.8 ng/mL
Vd/F [6, 9]: 41.3 ± 12.3 L/kg
half-life [6, 9]: 139 ± 24.2 min
AUC(0-t) [6, 9]: 782 ± 115 ng·h/mL
Tmax ([6]; pre-treatment of verapamil 50 mg/kg, read-out: Tmax): 70.2 ± 31 min
Tmax ([6]; without verapamil, read-out: time to peak plasma concentration (converted)): ~15 min
t1/2 ([6]; control (vehicle)): 1.85 ± 0.390 h
